Results: US9113629B2, “4-amino-6-(4-substituted-phenyl)-picolinates and 6-amino-2-(4-substituted-phenyl)-pyrimidine-4-carboxylates and their use as herbicides” (DOW AGROSCIENCES LLC, priority 2013, dated 2015)

Key:
Test in all cases: Post-emergent Test III, herbicidal activity in wheat and barley
Format in all cases: in vivo
[1] = tested on: ALOMY: black-grass (Alopecurus myosuroides); conditions: for pest or weed control at 35 g/ha / pest or weed control at 70 g/ha / pest or weed control at 140 g/ha: Alopecurus myosuroides, post-emergence, 504 h, read-out: Visual Growth Reduction (%) 21 Days After Application ALOMY; for pest or weed control at 35 g/ha: 35 g ai/ha; for pest or weed control at 70 g/ha: 70 g ai/ha; for pest or weed control at 140 g/ha: 140 g ai/ha; for GR50 ALOMY / GR80 ALOMY: probit analysis, 21 days after application; for GR50 ALOMY: dose for growth reduction of 50 percent; for GR80 ALOMY: dose for growth reduction of 80 percent
Method in brief: (§1)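 GR20, GR50, GR80 and GR90 come from probit analysis of visual injury scores (0 = none, 100 = complete kill) taken 21 d after treatment. Foliar application was by track sprayer delivering 187 L/ha at five rates, from high down to 1/16×, onto greenhouse plants at the 2–3 leaf stage, with solvent-blank controls.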

[2] = tested on: BROTE: downy brome (Bromus tectorum); conditions: for pest or weed control at 35 g/ha / pest or weed control at 70 g/ha / pest or weed control at 140 g/ha: Bromus tectorum, post-emergence, 504 h, read-out: Visual Growth Reduction (%) 21 Days After Application BROTE; for pest or weed control at 35 g/ha: 35 g ai/ha; for pest or weed control at 70 g/ha: 70 g ai/ha; for pest or weed control at 140 g/ha: 140 g ai/ha; for GR50 BROTE / GR80 BROTE: probit analysis, 21 days after application; for GR50 BROTE: dose for growth reduction of 50 percent; for GR80 BROTE: dose for growth reduction of 80 percent
Method in brief: as §1

[3] = tested on: PAPRH: common poppy (Papaver rhoeas); conditions: for pest or weed control at 35 g/ha / pest or weed control at 70 g/ha / pest or weed control at 140 g/ha: Papaver rhoeas, post-emergence, 504 h, read-out: Visual Growth Reduction (%) 21 Days After Application PAPRH; for pest or weed control at 35 g/ha: 35 g ai/ha; for pest or weed control at 70 g/ha: 70 g ai/ha; for pest or weed control at 140 g/ha: 140 g ai/ha; for GR50 PAPRH / GR80 PAPRH: probit analysis, 21 days after application; for GR50 PAPRH: dose for growth reduction of 50 percent; for GR80 PAPRH: dose for growth reduction of 80 percent
Method in brief: as §1

[4] = tested on: PHAMI: lesser canary grass (Phalaris minor); conditions: for pest or weed control at 35 g/ha / pest or weed control at 70 g/ha / pest or weed control at 140 g/ha: Phalaris minor, post-emergence, 504 h, read-out: Visual Growth Reduction (%) 21 Days After Application PHAMI; for pest or weed control at 35 g/ha: 35 g ai/ha; for pest or weed control at 70 g/ha: 70 g ai/ha; for pest or weed control at 140 g/ha: 140 g ai/ha; for GR50 PHAMI / GR80 PHAMI: probit analysis, 21 days after application; for GR50 PHAMI: dose for growth reduction of 50 percent; for GR80 PHAMI: dose for growth reduction of 80 percent
Method in brief: as §1

[5] = tested on: STEME: common chickweed (Stellaria media); conditions: for pest or weed control at 35 g/ha / pest or weed control at 70 g/ha / pest or weed control at 140 g/ha: Stellaria media, post-emergence, 504 h, read-out: Visual Growth Reduction (%) 21 Days After Application STEME; for pest or weed control at 35 g/ha: 35 g ai/ha; for pest or weed control at 70 g/ha: 70 g ai/ha; for pest or weed control at 140 g/ha: 140 g ai/ha; for GR50 STEME / GR80 STEME: probit analysis, 21 days after application; for GR50 STEME: dose for growth reduction of 50 percent; for GR80 STEME: dose for growth reduction of 80 percent
Method in brief: as §1

[6] = tested on: VERPE: bird's-eye speedwell (veronica persica); conditions: for pest or weed control at 35 g/ha / pest or weed control at 70 g/ha / pest or weed control at 140 g/ha: Veronica persica, post-emergence, 504 h, read-out: Visual Growth Reduction (%) 21 Days After Application VERPE; for pest or weed control at 35 g/ha: 35 g ai/ha; for pest or weed control at 70 g/ha: 70 g ai/ha; for pest or weed control at 140 g/ha: 140 g ai/ha; for GR50 VERPE / GR80 VERPE: probit analysis, 21 days after application; for GR50 VERPE: dose for growth reduction of 50 percent; for GR80 VERPE: dose for growth reduction of 80 percent
Method in brief: as §1

| SMILES | pest or weed control at 35 g/ha [1] [%] | pest or weed control at 70 g/ha [1] [%] | pest or weed control at 140 g/ha [1] [%] | GR50 ALOMY [1] [g ai/ha] | GR80 ALOMY [1] [g ai/ha] | pest or weed control at 35 g/ha [2] [%] | pest or weed control at 70 g/ha [2] [%] | pest or weed control at 140 g/ha [2] [%] | GR50 BROTE [2] [g ai/ha] | GR80 BROTE [2] [g ai/ha] | pest or weed control at 35 g/ha [3] [%] | pest or weed control at 70 g/ha [3] [%] | pest or weed control at 140 g/ha [3] [%] | GR50 PAPRH [3] [g ai/ha] | GR80 PAPRH [3] [g ai/ha] | pest or weed control at 35 g/ha [4] [%] | pest or weed control at 70 g/ha [4] [%] | pest or weed control at 140 g/ha [4] [%] | GR50 PHAMI [4] [g ai/ha] | GR80 PHAMI [4] [g ai/ha] | other results |
| --- | --- | --- | --- | --- | --- | --- | --- | --- | --- | --- | --- | --- | --- | --- | --- | --- | --- | --- | --- | --- | --- |
| COC(=O)c1nc(-c2ccc(Br)c(F)c2F)cc(N)c1Cl [Compound 114, methyl 4-amino-6-(4-bromo-2,3-difluorophenyl)-3-chloropicolinate] | 0 to 29 | 0 to 29 | 0 to 29 | >140 | >140 | 0 to 29 | 0 to 29 | 0 to 29 | >140 | >140 | 95 to 100 | 95 to 100 | 95 to 100 | 1 | 4 | 0 to 29 | 0 to 29 | 0 to 29 | >140 | >140 | pest or weed control at 35 g/ha [5]: 0 to 29%; pest or weed control at 70 g/ha [5]: 0 to 29%; pest or weed control at 140 g/ha [5]: 0 to 29%; GR50 STEME [5]: >140 g ai/ha; GR80 STEME [5]: >140 g ai/ha; pest or weed control at 35 g/ha [6]: 30 to 44%; pest or weed control at 70 g/ha [6]: 30 to 44%; pest or weed control at 140 g/ha [6]: 30 to 44%; GR50 VERPE [6]: >140 g ai/ha; GR80 VERPE [6]: >140 g ai/ha |
| COC(=O)c1nc(-c2ccc(I)cc2)c(F)c(N)c1Cl [Compound 118, Methyl 4-amino-6-(4-iodophenyl)-3-chloro-5-fluoropicolinate] | 60 to 74 | 75 to 84 | 85 to 94 | 25 | 60 | 60 to 74 | 85 to 94 | 85 to 94 | 31 | 64 | 95 to 100 | 95 to 100 | 95 to 100 | 1 | 1 | 0 to 29 | 60 to 74 | 75 to 84 | 68 | 126 | pest or weed control at 35 g/ha [5]: 30 to 44%; pest or weed control at 70 g/ha [5]: 30 to 44%; pest or weed control at 140 g/ha [5]: 30 to 44%; GR50 STEME [5]: 1 g ai/ha; GR80 STEME [5]: 1 g ai/ha; pest or weed control at 35 g/ha [6]: 85 to 94%; pest or weed control at 70 g/ha [6]: 85 to 94%; pest or weed control at 140 g/ha [6]: 95 to 100%; GR50 VERPE [6]: 5 g ai/ha; GR80 VERPE [6]: 17 g ai/ha |
| Nc1c(F)c(-c2ccc(I)cc2)nc(C(=O)O)c1Cl [Compound 45, 4-amino-3-chloro-5-fluoro-6-(4-iodophenyl)picolinic acid] | 75 to 84 | 85 to 94 | 95 to 100 | 9 | 27 | 85 to 94 | 85 to 94 | 95 to 100 | 13 | 36 | 95 to 100 | 95 to 100 | 95 to 100 | 1 | 1 | 75 to 84 | 85 to 94 | 95 to 100 | 15 | 32 | pest or weed control at 35 g/ha [5]: 30 to 44%; pest or weed control at 70 g/ha [5]: 30 to 44%; pest or weed control at 140 g/ha [5]: 30 to 44%; GR50 STEME [5]: 75 g ai/ha; GR80 STEME [5]: >140 g ai/ha; pest or weed control at 35 g/ha [6]: 75 to 84%; pest or weed control at 70 g/ha [6]: 85 to 94%; pest or weed control at 140 g/ha [6]: 85 to 94%; GR50 VERPE [6]: 7 g ai/ha; GR80 VERPE [6]: 30 g ai/ha |
